Molecular target: SARS-CoV-2 M^pro (Severe acute respiratory syndrome coronavirus 2, UniProt P0DTD1)
Experiment: biochemical
Details: for inhibition at 50 µM: read-out: % Protease inhibition at 50 μM ligand concentration

SMILES | % Protease inhibition at 50 μM ligand concentration (50 μM) [%] | IC50 [µM] | inhibition at 50 µM [%]
O=C(Nc1ccccc1-c1cn2c(CN3CCNCC3)csc2n1)c1cnc2ccccc2n1 [SRT1720] | 9.3 ± 2.2 |  | 
Oc1ccc(/C=C/c2cc(O)cc(O)c2)cc1 [Resveratrol] |  | > 128 | 1.8 ± 0.9
C[S@@+]([O-])CCCCN=C=S [L-sulforaphane] |  | > 128 | 8.4 ± 2.7
Cc1cc(O)c2c(=O)c3c(O)cc(O)c4c5c(O)cc(O)c6c(=O)c7c(O)cc(C)c8c1c2c(c34)c(c78)c65 [Hypericin] |  | 63.6 ± 5.7 | 42.8 ± 8.2

Reference: PMC7583591 (Computational Biology and Chemistry, 2020)
